Where two headings read alike, the source gives them in different places.
Tests used:
IL-6 = IL-6 inhibition in LPS-stimulated human peripheral blood mononuclear cells (HTRF); assay type: cell-based; conditions: Homo sapiens, PBMC; for EC50: IL-6, LPS-stimulated huPBMCs, HTRF; for inhibition at 10 µM: read-out: percent value in parentheses below EC50 >10
Summary of the method: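 EC50 from a 4-parameter fit of DMSO-normalized HTRF (665/620 nm) IL-6 signal, duplicates. Compound was added to fresh human PBMCs in 1% FBS RPMI for 2 h (top 10 μM, 3-fold, 0.25% DMSO) before 22 h stimulation with LPS at 50 ng/mL, 37 °C.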

[1] = system: SW480 colon carcinoma cells; assay: Cell viability assay (CellTiter-Glo) in SW480 cells; assay type: cell-based, human;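 also: SW480 cells stably carrying an Sp5-luciferase TCF/LEF reporter, luminescent ATP signal as viability measure, DMSO-treated cells as control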
GSK3β kinase = GSK3β kinase (Homo sapiens (Human), UniProt P49841); assay: GSK3β kinase assay (Ser/Thr 09 peptide Z-lyte, FRET); assay type: biochemical; conditions: method text calls the value IC50;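 also: Coumarin/fluorescein emission ratio converted to percent phosphorylation against unphosphorylated (0%) and phosphorylated (100%) controls, 1 h compound incubation at room temperature, 11-point threefold dilutions from 10 µM, run in duplicate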
Chain of GSK3β kinase (P49841 whole entry): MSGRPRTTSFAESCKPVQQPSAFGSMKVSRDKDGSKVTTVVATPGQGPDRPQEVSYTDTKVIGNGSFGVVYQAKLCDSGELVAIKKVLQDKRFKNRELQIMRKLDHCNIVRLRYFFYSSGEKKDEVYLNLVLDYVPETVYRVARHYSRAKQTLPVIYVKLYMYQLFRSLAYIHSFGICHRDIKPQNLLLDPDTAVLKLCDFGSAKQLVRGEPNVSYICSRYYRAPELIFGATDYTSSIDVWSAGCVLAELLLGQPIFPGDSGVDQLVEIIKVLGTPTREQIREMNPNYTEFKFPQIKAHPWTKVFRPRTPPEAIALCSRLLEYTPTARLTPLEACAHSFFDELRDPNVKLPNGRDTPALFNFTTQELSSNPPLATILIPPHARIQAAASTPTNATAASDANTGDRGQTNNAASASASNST
Method: Representative compounds were screened using the assay procedure for GSK30 kinase activity as described below.
Each compound is dissolved in DMSO as a 10 mM stock and used to prepare compound source plates. Serial dilution (1:3, 11-point dose-response curves from 10 M to 0.0003 μM) and compound transfer was performed using the ECHO 550 (Labcyte, Sunnyvale, Calif.) into 1536-well black-walled round bottom plates (Corning).
This is a non-radioactive assay using fluorescence resonance energy transfer (FRET) between coumarin and fluorescein to detect kinase activity which is represented as ratio of coumarin emission/fluorescein emission.
The mixture is allowed to incubate with the representative compounds for one hour at room temperature. All reactions were performed in duplicate. Unphosphorylated (“0% Control”) and phosphorylated (“100% control”) forms of Ser/Thr 18 serve as control reactions.
After incubation, diluted Development Buffer is added to the reaction and allowed to further incubate for one hour at room temperature.
The percent phosphorylation is then calculated using the following formula: [1−((Em ratio×F100%)−C100%)/((C0%−C100%)+(Em ratio×(F100%−F0%)))].
Dose-response curves are generated and inhibitory concentration (IC50) values are calculated using non-linear regression curve fit in the Dotmatics' Studies Software (Bishops Stortford, UK).

[2] = system: LL29 cells (primary human fibroblasts derived from IPF patients), α-smooth muscle actin; assay: Inhibition of fibrotic process: αSMA in TGF-β1-treated primary human fibroblasts from IPF patients (LL29 cells); assay type: cell-based; conditions: Homo sapiens, Fibroblast; for EC50: 96 h, % αSMA-positive LL29 cells, TGF-β1 20 ng/mL, 4 days; for inhibition at 10 µM: read-out: percent inhibition at 10 μM
Summary of the method: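 Read-out is the percentage of αSMA-positive cells by high-content imaging, excluding SYTOX green-positive dead/apoptotic cells, normalized to TGF-β1-only wells on the same plate. LL29 cells were exposed for 4 days at 37 °C to 20 ng/mL TGF-β1 plus 11-point, 2-fold compound dilutions in 0.1% DMSO.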

DYRK1A kinase = DYRK1A kinase (Homo sapiens (Human), UniProt Q13627); assay: DYRK1A kinase assay (Ser/Thr 18 peptide Z-lyte, FRET)
[3] = system: Wnt activity (Sp5-Luc reporter in SW480 colon carcinoma cells); assay: Wnt activity screening assay (Sp5-Luc reporter gene assay); assay type: cell-based, human
Summary of the method: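 Compounds at 10 points (1:3 steps, top 10 μM, 0.1% DMSO final) were incubated 36 to 48 h at 37° C with stable Sp5-Luc SW480 reporter cells in 1% FBS medium. Luciferase luminescence was then read and expressed relative to DMSO-only cells. Four-parameter variable-slope fitting yielded EC50 values.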

[4] = system: Tau phosphorylation at Ser396 (pSer396), SH-SY5Y cells; assay: Tau phosphorylation at Ser396 (pSer396) in SH-SY5Y cells, ELISA/western blot; assay type: cell-based, human; conditions: Homo sapiens;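 also: cell lysates probed for reduced Tau pSer396 via ELISA (colorimetric) or western blot (chemiluminescence), both with one shared pSer396 antibody, EC50 for lowering phosphorylation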
[5] = Homo sapiens, 96 h; cell viability, SW480 cells, four days, CellTiter-Glo
[6] = DYRK1A kinase, method text calls the value IC50
[7] = Homo sapiens; Sp5-Luc reporter, SW480 cells, 36 to 48 hours
[8] = SH-SY5Y cells, overnight (16-18 h), read-out: pSer396 Tau EC50
[9] = Homo sapiens, SW480; read-out: percent inhibition at 10 μM
[10] = Homo sapiens, SW480, read-out: percent inhibition at 10 μM

SMILES	EC50 (IL-6) [nM]	EC50 [1, 5] [nM]	EC50 (GSK3β kinase) [nM]	EC50 [2] [nM]	EC50 (DYRK1A kinase; [6]) [nM]	EC50 [3, 7] [nM]	EC50 [4, 8] [µM]	inhibition at 10 µM [1, 9] [%]	inhibition at 10 µM [3, 9] [%]	inhibition at 10 µM (IL-6) [%]	inhibition at 10 µM [2] [%]	inhibition at 10 µM [1, 10] [%]	inhibition at 10 µM [3, 10] [%]	EC50 ([4]; SH-SY5Y, read-out: pSer396 Tau EC50 (μM)) [µM]	EC50 (DYRK1A kinase) [nM]
Cc1ncc(-c2ccc3cnc(NC(=O)[C@H]4CC[C@H](NCC(F)F)CC4)cc3c2)o1 [Compound 104, trans-4-((2,2-Difluoroethyl)amino)-N-(6-(2-methyloxazol-5-yl)isoquinolin-3-yl)cyclohexane-1-carboxamide]	1140	4590	149	220	8	3600	0.712								
COCCN[C@H]1CC[C@H](C(=O)Nc2cc3cc(-c4cnn(C)c4)cc(F)c3cn2)CC1 [Compound 105, trans-N-(8-Fluoro-6-(1-methyl-1H-pyrazol-4-yl)isoquinolin-3-yl)-4-((2-methoxyethyl)amino)cyclohexane-1-carboxamide]	1570	> 10000	550	812	34	> 10000	2.2	16.9	15.8						
Cc1nnc(-c2ccc3cnc(NC(=O)N4CCN(C)[C@H](C)C4)cc3c2)s1 [Compound 109, (R)-3,4-Dimethyl-N-(6-(5-methyl-1,3,4-thiadiazol-2-yl)isoquinolin-3-yl) piperazine-1-carboxamide]	> 10000	4130	175	> 10000	10	7810	3.1			6.9	19.5				
Cc1nnc(-c2ccc3cnc(NC(=O)N4CC5CCC(C4)N5C)cc3c2)s1 [Compound 110, 8-Methyl-N-(6-(5-methyl-1,3,4-thiadiazol-2-yl)isoquinolin-3-yl)-3,8-diazabicyclo[3.2.1]octane-3-carboxamide]	> 10000	> 10000	314	1970	17	> 10000				7		1.5	24.5	2.1	
Cc1nnc(-c2ccc3cnc(NC(=O)N4CCC(NC(CF)CF)CC4)cc3c2)s1 [Compound 121, 4-((1,3-Difluoropropan-2-yl)amino)-N-(6-(5-methyl-1,3,4-thiadiazol-2-yl)isoquinolin-3-yl)piperidine-1-carboxamide]	> 10000	> 10000	82	> 10000	35	8130	0.953	36.5		5.4	10.4				
Cc1ncc(-c2ccc3cnc(NC(=O)[C@H]4CC[C@H](NC(CF)CF)CC4)cc3c2)o1 [Compound 124, trans-4-((1,3-difluoropropan-2-yl)amino)-N-(6-(2-methyloxazol-5-yl)isoquinolin-3-yl)cyclohexane-1-carboxamide]	1880	1020	217	451	35	3480	0.612								
Cc1nnc(-c2ccc3cnc(NC(=O)N4CCn5ccnc5C4)cc3c2)s1 [Compound 125, N-(6-(5-Methyl-1,3,4-thiadiazol-2-yl)isoquinolin-3-yl)-5,6-dihydroimidazo [1,2-a]pyrazine-7(8H)-carboxamide]	9270	1660	5	442	4	1240	0.114								
Cc1ncc(-c2ccc3cnc(NC(=O)N4CCn5ccnc5C4)cc3c2)o1 [Compound 126, N-(6-(2-Methyloxazol-5-yl)isoquinolin-3-yl)-5,6-dihydroimidazo[1,2-a]pyrazine-7(8H)-carboxamide]	363	488	24	286	5	1180	0.197								
Cc1nnc(-c2ccc3cnc(NC(=O)N4CCC(N5CCOCC5)CC4)cc3c2)s1 [Compound 128, N-(6-(5-Methyl-1,3,4-thiadiazol-2-yl)isoquinolin-3-yl)-4-morpholinopiperidine-1-carboxamide]	> 10000	4370	25	6630	16	3180	0.491			8					
Cc1nnc(-c2ccc3cnc(NC(=O)N4CCC(N5CCN(C)CC5)CC4)cc3c2)s1 [Compound 129, N-(6-(5-methyl-1,3,4-thiadiazol-2-yl)isoquinolin-3-yl)-4-(4-methylpiperazin-1-yl)piperidine-1-carboxamide]	> 10000	3620	90	1990	18	1810	0.656			4.5					
Cc1nnc(-c2ccc3cnc(NC(=O)N4CC[C@@H](NC(C)C)[C@H](F)C4)cc3c2)s1 [Compound 130, (3R,4R)-3-Fluoro-4-(isopropylamino)-N-(6-(5-methyl-1,3,4-thiadiazol-2-yl)isoquinolin-3-yl)piperidine-1-carboxamide]	> 10000	4210	142	3300	37	4040	1.5			12.2					
Cc1nnc(-c2ccc3cnc(NC(=O)N4CC[C@@H](N)[C@H](F)C4)cc3c2)s1 [Compound 131, (3R,4R)-4-Amino-3-fluoro-N-(6-(5-methyl-1,3,4-thiadiazol-2-yl)isoquinolin-3-yl)piperidine-1-carboxamide]	1930	> 10000	6	1930	13	3920	0.337	35.9							
[2H]c1c(NC(=O)C2CCN(C)CC2)ncc2ccc(-c3nnc(C)s3)cc12 [Compound 134, 1-Methyl-N-(6-(5-methyl-1,3,4-thiadiazol-2-yl)isoquinolin-3-yl-4-d) piperidine-4-carboxamide]	7130	2740	19	579		593	0.093								6
[2H]c1c(NC(=O)CN2CCOCC2)ncc2ccc(-c3nnc(C)s3)cc12 [Compound 135, N-(6-(5-Methyl-1,3,4-thiadiazol-2-yl)isoquinolin-3-yl-4-d)-2-morpholinoacetamide]	> 10000	> 10000	22	2140		5690	0.365	27.8		0					41
[2H]c1c(NC(=O)C2CCN(C)CC2)ncc2ccc(-c3cnc(C)o3)cc12 [Compound 136, 1-Methyl-N-(6-(2-methyloxazol-5-yl)isoquinolin-3-yl-4-d)piperidine-4-carboxamide]	463	1120	80	418		2110	0.309								6
[2H]c1c(NC(=O)CN2CCOCC2)ncc2ccc(-c3cnc(C)o3)cc12 [Compound 137, N-(6-(2-Methyloxazol-5-yl)isoquinolin-3-yl-4-d)-2-morpholinoacetamide]	2280	> 10000	68	3130		> 10000	0.573	39	38.5						18
[2H]C([2H])([2H])C(N[C@H]1CCN(C(=O)Nc2cc3cc(-c4nnc(C)s4)ccc3cn2)C[C@@H]1F)C([2H])([2H])[2H] [Compound 139, (3S,4S)-3-Fluoro-N-(6-(5-methyl-1,3,4-thiadiazol-2-yl)isoquinolin-3-yl)-4-((propan-2-yl-1,1,1,3,3,3-d6)amino)piperidine-1-carboxamide]	> 10000	7350	33	2350		2820	1.4			6.6					22

Source: patent US10604514B2, “6-(5-membered heteroaryl)isoquinolin-3-yl carboxamides and preparation and use thereof” (Samumed, LLC, priority 2017, dated 2020)
